Assay results: patent publication US20080200454A1, “CARBON-LINKED TETRAHYDRO-PYRAZOLO-PYRIDINE MODULATORS OF CATHEPSIN S” (priority 2007, published 2008)

biological target: Recombinant human cathepsin S (CatS) (Homo sapiens, UniProt P25774); assay: Recombinant human cathepsin S (CatS) inhibition assay, fluorogenic substrate Z-Valine-Valine-Arginine-AMC; details: not given;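 also: Baculovirus-expressed CatS in pH 5.0 sodium acetate buffer with DTT and NaCl, fluorescence read each minute over 20 min, inhibition derived from rate slope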
Sequence (P25774 115-331): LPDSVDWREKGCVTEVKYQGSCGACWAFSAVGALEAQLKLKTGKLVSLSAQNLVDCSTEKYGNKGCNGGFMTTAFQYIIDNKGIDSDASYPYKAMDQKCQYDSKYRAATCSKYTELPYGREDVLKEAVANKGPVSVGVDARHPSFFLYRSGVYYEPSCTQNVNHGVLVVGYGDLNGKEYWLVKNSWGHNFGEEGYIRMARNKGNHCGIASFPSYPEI

IC50 [µM] | SMILES
1.15 | CS(=O)(=O)N1CCc2c(c(-c3ccc(Cl)c(C#Cc4cccc(CC(=O)O)c4)c3)nn2CCCN2CCOCC2)C1 [Example 16, (3-{2-Chloro-5-[5-methanesulfonyl-1-(3-morpholin-4-yl-propyl)-4,5,6,7-tetrahydro-1H-pyrazolo[4,3-c]pyridin-3-yl]-phenylethynyl}-phenyl)-acetic acid]
0.2 | CS(=O)(=O)N1CCc2c(c(-c3ccc(Cl)c(C#Cc4ccc(CN[C@@H]5Cc6ccccc6[C@@H]5O)cc4)c3)nn2CCCN2CCOCC2)C1 [Example 445, (1S,2R)-2-({[4-({2-Chloro-5-[5-(methylsulfonyl)-1-(3-morpholin-4-ylpropyl)-4,5,6,7-tetrahydro-1H-pyrazolo[4,3-c]pyridin-3-yl]phenyl}ethynyl)phenyl]methyl}amino)-2,3-dihydro-1H-inden-1-ol]
0.41 | CS(=O)(=O)N1CCc2c(c(-c3ccc(C(F)(F)F)c(CCc4ccc(Cl)cc4)c3)nn2CC(O)CN2CCOCC2)C1 (stereo not shown) [Example 147, 1-(3-{3-[2-(4-Chloro-phenyl)-ethyl]-4-trifluoromethyl-phenyl}-5-methanesulfonyl-4,5,6,7-tetrahydro-pyrazolo[4,3-c]pyridin-1-yl)-3-morpholin-4-yl-propan-2-ol]
0.09 | CS(=O)(=O)N1CCc2c(c(-c3ccc(Cl)c(C#Cc4ccc5c(c4)CNCC5)c3)nn2CCCN2CCN(C3CC3)CC2)C1 [Example 415, 7-[(2-Chloro-5-{1-[3-(4-cyclopropylpiperazin-1-yl)propyl]-5-(methylsulfonyl)-4,5,6,7-tetrahydro-1H-pyrazolo[4,3-c]pyridin-3-yl}phenyl)ethynyl]-1,2,3,4-tetrahydroisoquinoline]
11.4 | CC(=O)NCCCc1cc(-c2nn(CCCN3CCOCC3)c3c2CN(S(C)(=O)=O)CC3)ccc1Cl [Example 87, N-(3-{2-Chloro-5-[5-methanesulfonyl-1-(3-morpholin-4-yl-propyl)-4,5,6,7-tetrahydro-1H-pyrazolo[4,3-c]pyridin-3-yl]-phenyl}-propyl)-acetamide]
0.03 | CS(=O)(=O)N1CCc2c(c(-c3ccc(Cl)c(C#Cc4ccc(CNC5CCCc6ccccc65)cc4)c3)nn2CCCN2CCN(c3ccccn3)CC2)C1 (stereo in doubt) [Example 215, (1R)—N-({4-[(2-Chloro-5-{5-(methylsulfonyl)-1-[3-(4-pyridin-2-ylpiperazin-1-yl)propyl]-4,5,6,7-tetrahydro-1H-pyrazolo[4,3-c]pyridin-3-yl}phenyl)ethynyl]phenyl}methyl)-1,2,3,4-tetrahydronaphthalen-1-amine]
0.02 | C[C@H]1COCCN1CCCn1nc(-c2ccc(Cl)c(C#Cc3ccc(Cl)c(CNC[C@H]4CCCO4)c3)c2)c2c1CCN(C(=O)C(N)=O)C2 [Example 268, 2-{3-[4-Chloro-3-(4-chloro-3-{[((2R)-tetrahydro-furan-2-ylmethyl)-amino]-methyl}-phenylethynyl)-phenyl]-1-[3-((3S)-3-methyl-morpholin-4-yl)-propyl]-1,4,6,7-tetrahydro-pyrazolo[4,3-c]pyridin-5-yl}-2-oxo-acetamide]

The remaining lines, values behind:

SMILES | IC50 [µM]
CS(=O)(=O)N1CCc2c(c(-c3ccc(Cl)c(C#Cc4ccc(Cl)cc4)c3)nn2CC(O)CN2CCNCC2)C1 (stereo not shown) [Example 132, 1-{3-[4-Chloro-3-(4-chloro-phenylethynyl)-phenyl]-5-methanesulfonyl-4,5,6,7-tetrahydro-pyrazolo[4,3-c]pyridin-1-yl}-3-piperazin-1-yl-propan-2-ol] | 0.39
CS(=O)(=O)N1CCc2c(c(-c3ccc(Cl)c(CCc4ccc(Cl)cc4)c3)nn2C[C@@H](O)CN2CCC(C3CCNCC3)CC2)C1 [Example 246, (2S)-1-(4,4′-Bipiperidin-1-yl)-3-[3-{4-chloro-3-[2-(4-chlorophenyl)ethyl]phenyl}-5-(methylsulfonyl)-4,5,6,7-tetrahydro-1H-pyrazolo[4,3-c]pyridin-1-yl]propan-2-ol] | 0.01
COC(=O)c1ccccc1S(=O)(=O)NCCCc1cc(-c2nn(CCCN3CCC(N4CCCC4=O)CC3)c3c2CN(S(C)(=O)=O)CC3)ccc1Cl [Example 309, Methyl 2-{[(3-{2-chloro-5-[5-(methylsulfonyl)-1-{3-[4-(2-oxopyrrolidin-1-yl)piperidin-1-yl]propyl}-4,5,6,7-tetrahydro-1H-pyrazolo[4,3-c]pyridin-3-yl]phenyl}propyl)amino]sulfonyl}benzoate] | 0.32

same assay, conditions: CatS IC50

SMILES | IC50 [µM]
CS(=O)(=O)N1CCc2c(c(-c3ccc(Cl)c(C#Cc4ccc(CNCc5ccc(Cl)cc5)cc4)c3)nn2CCCN2CC[S+]([O-])CC2)C1 [Example 537, 1-{4-[(2-Chloro-5-{5-(methylsulfonyl)-1-[3-(1-oxidothiomorpholin-4-yl)propyl]-4,5,6,7-tetrahydro-1H-pyrazolo[4,3-c]pyridin-3-yl}phenyl)ethynyl]phenyl}-N-[(4-chlorophenyl)methyl]methanamine] | 0.28
COc1ccccc1CNCc1ccc(C#Cc2cc(-c3nn(CCCN4CCSCC4)c4c3CN(C(N)=O)CC4)ccc2Cl)cc1 [Example 533, 3-[4-Chloro-3-({4-[({[2-(methyloxy)phenyl]methyl}amino)methyl]phenyl}ethynyl)phenyl]-1-(3-thiomorpholin-4-ylpropyl)-1,4,6,7-tetrahydro-5H-pyrazolo[4,3-c]pyridine-5-carboxamide] | 0.1
C[C@H]1COCCN1C[C@@H](O)Cn1nc(-c2ccc(Cl)c(C#Cc3ccc(CNCc4ccc(Cl)cc4)cc3)c2)c2c1CCN(C(=O)C(N)=O)C2 [Example 256, 2-{3-(4-Chloro-3-{4-[(4-chloro-benzylamino)-methyl]-phenylethynyl}-phenyl)-1-[(2R)-2-hydroxy-3-((3S)-3-methyl-morpholin-4-yl)-propyl]-1,4,6,7-tetrahydro-pyrazolo[4,3-c]pyridin-5-yl}-2-oxo-acetamide] | 0.05
C[C@H]1COCCN1CCCn1nc(-c2ccc(Cl)c(C#Cc3ccc(Cl)c(CNCc4ccccn4)c3)c2)c2c1CCN(C(=O)C(N)=O)C2 [Example 289, 2-(3-{4-Chloro-3-[(4-chloro-3-{[(pyridin-2-ylmethyl)amino]methyl}phenyl)ethynyl]phenyl}-1-{3-[(3S)-3-methylmorpholin-4-yl]propyl}-1,4,6,7-tetrahydro-5H-pyrazolo[4,3-c]pyridin-5-yl)-2-oxoacetamide] | 0.01
NC(=O)C(=O)N1CCc2c(c(-c3ccc(Cl)c(C#Cc4ccc(Cl)c(C(=O)N5CCCC5)c4)c3)nn2CCCN2CCSCC2)C1 [Example 567, 2-[3-(4-Chloro-3-{[4-chloro-3-(pyrrolidin-1-ylcarbonyl)phenyl]ethynyl}phenyl)-1-(3-thiomorpholin-4-ylpropyl)-1,4,6,7-tetrahydro-5H-pyrazolo[4,3-c]pyridin-5-yl]-2-oxoacetamide] | 0.16
NC(=O)N1CCc2c(c(-c3ccc(Cl)c(C#Cc4cccc(CNCc5ccc(F)cc5)c4)c3)nn2CCCN2CCSCC2)C1 [Example 517, 3-(4-Chloro-3-{[3-({[(4-fluorophenyl)methyl]amino}methyl)phenyl]ethynyl}phenyl)-1-(3-thiomorpholin-4-ylpropyl)-1,4,6,7-tetrahydro-5H-pyrazolo[4,3-c]pyridine-5-carboxamide] | 0.19
